Measured values published in PMC9000482, “Inhibition of Aldose Reductase by Ginsenoside Derivatives via a Specific Structure Activity Relationship with Kinetics Mechanism and Molecular Docking Study” (Molecules, 2022).
Like-named read-outs stand apart in the source and are kept apart here.

Tests used:
[1] = target: T1, rat lens aldose reductase (RLAR) (Rattus norvegicus, UniProt P07943); assay: RLAR inhibitory activity assay (rat lens homogenate, DL-glyceraldehyde substrate); format: biochemical; conditions: for RLAR inhibitory activity (in words): at the concentrations tested; for IC50: rat lens homogenate, substrate DL-glyceraldehyde, mean ± S.E.M. of triplicate experiments, read-out: RLAR IC50
T1 construct: from tissue; host or cells: lens of Sprague-Dawley rats (supernatant of homogenate)
Procedure: A rat lens homogenate was prepared with minor modifications according to the method reported by Hayman et al.. Briefly, the lenses were removed from the eyes of Sprague-Dawley rats weighing 250–280 g. They were homogenized in sodium phosphate buffer (pH 6.2) that was prepared with dibasic sodium phosphate (Na2HPO4∙H2O, 0.66 g) and monobasic sodium phosphate (NaH2PO4∙H2O, 1.27 g) in 100 mL of double-distilled H2O. The homogenate was clarified by centrifugation at 10,000 rpm at 4 °C for 20 min and the resultant supernatant was frozen until use. A crude AR homogenate with a specific activity of 6.5 U/mg was used in all enzyme inhibition evaluations. The reaction solution consisted of 620 µL of 100 mM sodium phosphate buffer (pH 6.2), 90 µL of AR homogenate, 90 µL of 1.6 mM NADPH, and 9 µL of sample, while the substrate included 90 µL of 50 mM DL-glyceraldehyde. […] AR activity was determined by measuring the decrease in NADPH absorption at 340 nm over a 4 min period on an Ultrospec®2100pro UV/Visible spectrophotometer. SWIFT II Applications software (Amersham Biosciences, NJ, USA) was used for all data analyses. The inhibition percentage (%) was calculated as follows in Equation (1):[1 − (∆Asample/min − ∆Ablank/min)/(∆Acontrol/min − ∆Ablank/min)] × 100(1) in which ∆Asample/min represents the test sample and substrate’s reduction in absorbance over 4 min, and ∆A control/min represents the same reduction in absorbance, but with 100% DMSO (dimethyl sulfoxide) rather than the test sample.

[2] = target: T2, human recombinant aldose reductase (HRAR) (Homo sapiens, UniProt P15121); assay: HRAR inhibition assay (DL-glyceraldehyde substrate); format: biochemical
T2 construct: purchased Wako Chemicals (Osaka, Japan)
Procedure: HRAR inhibition was studied according to Nishimura et al.. AR action was studied by measuring the reduction in NADPH absorption at 340 nm over a period of 1 min on a UV/visible spectrophotometer (Ultrospec®2100pro, Biochrom, Holliston, MA, USA). For HRAR inhibition, the HRAR enzyme (0.4 units), was used in all enzyme inhibition evaluations. […] The inhibition percentage (%) was measured as designated in the RLAR assay. The DA sample/min value characterizes the decrease in absorbance for 1 min with the test samples and substrate. The ability of each sample to inhibit HRAR was observed as an IC50 value (µM) and measured from the log-dose inhibition curve.

[3] = substrate DL-glyceraldehyde, mean ± S.E.M. of triplicate experiments, read-out: HRAR IC50

Row | IC50 [1] [µM] | IC50 [2, 3] [µM] | IC50 [2] [µM] | Compound | RLAR inhibitory activity (in words) [1] | HRAR inhibitory activity (in words) ([2]; at the concentrations tested)
1 | 103 ± 7.45 | 93.3 ± 5.76 | – | CC(C)=CCC[C@](C)(O[C@@H]1O[C@H](CO[C@@H]2O[C@H](CO)[C@@H](O)[C@H](O)[C@H]2O)[C@@H](O)[C@H](O)[C@H]1O)[C@H]1CC[C@]2(C)[C@@H]1[C@H](O)C[C@@H]1[C@@]3(C)CC[C@H](O[C@@H]4O[C@H](CO)[C@@H](O)[C@H](O)[C@H]4O[C@@H]4O[C@H](CO)[C@@H](O)[C@H](O)[C@H]4O)C(C)(C)[C@@H]3CC[C@]12C [Ginsenoside Rb1] | – | –
2 | 117 ± 6.89 | 79 ± 4.55 | – | CC(C)=CCC[C@](C)(O[C@@H]1O[C@H](CO[C@@H]2OC[C@@H](O)[C@H](O)[C@H]2O)[C@@H](O)[C@H](O)[C@H]1O)[C@H]1CC[C@]2(C)[C@@H]1[C@H](O)C[C@@H]1[C@@]3(C)CC[C@H](O[C@@H]4O[C@H](CO)[C@@H](O)[C@H](O)[C@H]4O[C@@H]4O[C@H](CO)[C@@H](O)[C@H](O)[C@H]4O)C(C)(C)[C@@H]3CC[C@]12C [Ginsenoside Rb3] | – | –
3 | 89.6 ± 2.99 | 37.5 ± 1.33 | – | CC(C)=CCC[C@](C)(O[C@@H]1O[C@H](CO)[C@@H](O)[C@H](O)[C@H]1O)[C@H]1CC[C@]2(C)[C@@H]1[C@H](O)C[C@@H]1[C@@]3(C)CC[C@H](O[C@@H]4O[C@H](CO)[C@@H](O)[C@H](O)[C@H]4O[C@@H]4O[C@H](CO)[C@@H](O)[C@H](O)[C@H]4O)C(C)(C)[C@@H]3CC[C@]12C [Ginsenoside Rd] | – | –
4 | 81.3 ± 2.18 | 43.4 ± 3.11 | – | CC(C)=CCC[C@](C)(O[C@@H]1O[C@H](CO)[C@@H](O)[C@H](O)[C@H]1O)[C@H]1CC[C@]2(C)[C@@H]1[C@H](O)C[C@@H]1[C@@]3(C)CC[C@H](O)C(C)(C)[C@@H]3[C@@H](O[C@@H]3O[C@H](CO)[C@@H](O)[C@H](O)[C@H]3O[C@@H]3O[C@@H](C)[C@H](O)[C@@H](O)[C@H]3O)C[C@]12C [Ginsenoside Re] | – | –
5 | – | – | 0.69 ± 0.11 | O=C(O)Cn1c(=O)n(Cc2ccc(Br)cc2F)c(=O)c2ccc(Cl)cc21 [Zenaresta, Zenarestat, reference compound] | – | –

Further lines, the compound ahead of its results:

Row | Compound | IC50 [1] [µM] | IC50 [2, 3] [µM] | IC50 [2] [µM] | RLAR inhibitory activity (in words) [1] | HRAR inhibitory activity (in words) ([2]; at the concentrations tested)
6 | CC(C)=CCC[C@](C)(O[C@@H]1O[C@H](CO[C@@H]2OC[C@H](O[C@@H]3OC[C@@H](O)[C@H](O)[C@H]3O)[C@H](O)[C@H]2O)[C@@H](O)[C@H](O)[C@H]1O)[C@H]1CC[C@]2(C)[C@@H]1[C@H](O)C[C@@H]1[C@@]3(C)CC[C@H](O[C@@H]4O[C@H](CO)[C@@H](O)[C@H](O)[C@H]4O[C@@H]4O[C@H](CO)[C@@H](O)[C@H](O)[C@H]4O)C(C)(C)[C@@H]3CC[C@]12C [Ginsenoside Ra1] | > 200 | 75.6 ± 4.33 | – | inactive | –
7 | CC(C)=CCC[C@](C)(O[C@@H]1O[C@H](CO[C@@H]2O[C@@H](CO)[C@H](O)[C@H]2O[C@@H]2OC[C@@H](O)[C@H](O)[C@H]2O)[C@@H](O)[C@H](O)[C@H]1O)[C@H]1CC[C@]2(C)[C@@H]1[C@H](O)C[C@@H]1[C@@]3(C)CC[C@H](O[C@@H]4O[C@H](CO)[C@@H](O)[C@H](O)[C@H]4O[C@@H]4O[C@H](CO)[C@@H](O)[C@H](O)[C@H]4O)C(C)(C)[C@@H]3CC[C@]12C [Ginsenoside Ra2] | 178 ± 7.39 | 82.43 ± 0.44 | – | – | –
8 | CC(C)=CCC[C@](C)(O[C@@H]1O[C@H](CO[C@@H]2OC[C@H](O)[C@H](O)[C@H]2O)[C@@H](O)[C@H](O)[C@H]1O)[C@H]1CC[C@]2(C)[C@@H]1[C@H](O)C[C@@H]1[C@@]3(C)CC[C@H](O[C@@H]4O[C@H](CO)[C@@H](O)[C@H](O)[C@H]4O[C@@H]4O[C@H](CO)[C@@H](O)[C@H](O)[C@H]4O)C(C)(C)[C@@H]3CC[C@]12C [Ginsenoside Rb2] | 121 ± 3.43 | > 100 | – | – | inactive
9 | CC(C)=CCC[C@](C)(O[C@@H]1O[C@H](CO[C@@H]2O[C@@H](CO)[C@H](O)[C@H]2O)[C@@H](O)[C@H](O)[C@H]1O)[C@H]1CC[C@]2(C)[C@@H]1[C@H](O)C[C@@H]1[C@@]3(C)CC[C@H](O[C@@H]4O[C@H](CO)[C@@H](O)[C@H](O)[C@H]4O[C@@H]4O[C@H](CO)[C@@H](O)[C@H](O)[C@H]4O)C(C)(C)[C@@H]3CC[C@]12C [Ginsenoside Rc] | > 200 | 56.6 ± 2.19 | – | inactive | –
